Experimental data from patent publication US20080175927A1, “METHOD FOR PREVENTING PLANT DISEASES” (priority 2005, published 2008).
Marks after values point to notes of the source that are not given here.

Key:
[1] = system: Sphaerotheca aphanis var. aphanis; assay: Preventive test against strawberry powdery mildew, disease incidence rate; assay type: in vivo; conditions: for PR (prevention rate): 7 days after treatment; for DIR B (disease incident rate 7 days after treatment), I: replicate I; for DIR B (disease incident rate 7 days after treatment), II: replicate II; for DIR B (disease incident rate 7 days after treatment), III: replicate III
Procedure: To measure prevention effect against powdery mildew of extract of Coptis Rhizoma, Phellodendron amurense, Sanguniaria canadensis and Chelidonuum majus var. asiaticum and berberine and its derivative, we performed a preventive test agaist strawberry powdery mildew resulted from infection of Sphaerotheca aphanis var. aphanis using the standard extract obtained by Example 1 or berberine and derivative thereof. The above extract (30 mL) obtained from 10 g of fresh plant materials was dissolved in 200 μg/ml of Tween 20 solution. Final concentration of berberine and derivatives thereof was 400 μg/ml. Negative control was prepared by adding 250 μg/ml of Tween 20 in distilled water. As a positive control reagent, 30% solution of Rifzol wettable powder (Rifzol W P, Aventis Corp Science, Korea) is used and the Rifzol solution was diluted 1:4000 and treated with amount of 75 μg/ml which is common packing concentration.
In house condition of sandy-loamy soil, disease incidence rate was determined 7 days after treatment of the above mentioned reagents compared to one of non-treatment control and the test was repeated 3 times by randomized Block Design.
Before treatment of the reagents, the disease incidence rate of strawberry powdery mildew was 34.1%. The disease incidence rate is defined as percentage of disease developed plants among total investigated plants.
We investigated preventive effects of standard forms of berberine chloride, berberine iodide and berberine bromide and the standard extract obtained by Example 1 against strawberry powdery mildew at various concentrations according to the method of Example 4. […] When the freeze-dried standard extract obtained by Example 1 was used at concentration of at least 1 μg/ml or preferably 10 μg/ml, it prevented strawberry powdery mildew resulted from an infection of Sphaerotheca aphanis var. aphanis. From the above effect, the present inventors confirmed that the standard extract could substitute for synthetic chemical pesticides.

glomellera cingurata = assay: Paper disk method, growth inhibition by TLC-purified berberine and derivatives; assay type: cell-based; design: key: ++: strong inhibition; +: moderate inhibition; −: no inhibition; conditions: purified from TLC
Excerpt: (§1) To confirm antimicrobial activity of berberine and derivative thereof, we collected TLC bands of berberine and derivative thereof and investigated antimicrobial activity of berberine and derivative thereof against known plant pathogens using paper disk method (Ericsson, H., Hogman, C & Wickman. K. 1954, Scandinavian Journal of Clinical Laboratory Investigation 6, Suppl. 11:21-26). […] Therefore, the result of the aforementioned HPLC analysis, ^1H NMR analysis and antimicrobial activity, the active antimicrobial compound exisisting in the extract of Coptis Rhizoma, Phellodendron genus plant, Sanguniaria canadensis, and Chelidonuum majus var. asiaticum was identified as berberine or derivatives thereof.

damping-off of cucumber = assay: as above; assay type: cell-based, Pythium ultimum; design: key: ++: strong inhibition; +: moderate inhibition; −: no inhibition; conditions: purified from TLC
Excerpt: as §1

[2] = system: gray mold rot of strawberry; assay: as above; assay type: cell-based, Botrytis cinerea; design: key: ++: strong inhibition; +: moderate inhibition; −: no inhibition; conditions: purified from TLC
Excerpt: as §1

[3] = extracts 30 mL from 10 g plant, berberine salts 400 μg/ml, Rifzol 75 μg/ml
[4] = mean of I-III, extracts 30 mL from 10 g plant, berberine salts 400 μg/ml, Rifzol 75 μg/ml, negative control 19.0

SMILES | PR (prevention rate) ([1]; 1 μg/ml) [%] | DIR B (disease incident rate 7 days after treatment), MV (mean value) ([1]; 1 μg/ml, control 35.3) [%] | DIR B (disease incident rate 7 days after treatment), I ([1]; 1 μg/ml) [%] | DIR B (disease incident rate 7 days after treatment), II ([1]; 1 μg/ml) [%] | DIR B (disease incident rate 7 days after treatment), III ([1]; 1 μg/ml) [%] | PR (prevention rate) ([1]; 10 μg/ml) [%] | DIR B (disease incident rate 7 days after treatment), MV (mean value) ([1]; 10 μg/ml, control 35.3) [%] | DIR B (disease incident rate 7 days after treatment), I ([1]; 10 μg/ml) [%] | DIR B (disease incident rate 7 days after treatment), II ([1]; 10 μg/ml) [%] | DIR B (disease incident rate 7 days after treatment), III ([1]; 10 μg/ml) [%] | PR (prevention rate) ([1]; 100 μg/ml) [%] | DIR B (disease incident rate 7 days after treatment), MV (mean value) ([1]; 100 μg/ml, control 35.3) [%] | DIR B (disease incident rate 7 days after treatment), I ([1]; 100 μg/ml) [%] | DIR B (disease incident rate 7 days after treatment), II ([1]; 100 μg/ml) [%] | DIR B (disease incident rate 7 days after treatment), III ([1]; 100 μg/ml) [%] | PR (prevention rate) ([1]; 300 μg/ml) [%] | DIR B (disease incident rate 7 days after treatment), MV (mean value) ([1]; 300 μg/ml, control 35.3) [%] | DIR B (disease incident rate 7 days after treatment), I ([1]; 300 μg/ml) [%] | DIR B (disease incident rate 7 days after treatment), II ([1]; 300 μg/ml) [%] | DIR B (disease incident rate 7 days after treatment), III ([1]; 300 μg/ml) [%] | further results
COc1ccc2cc3[n+](cc2c1OC)CCc1cc2c(cc1-3)OCO2.[Br-] [berberine bromine, berberine bromide] | 12.5 | 30.9 | 29.6 | 27.6 | 35.4 | 47.3 | 18.6 | 13.5 | 17.6 | 24.8 | 61.5 | 13.6 | 13.2 | 11.7 | 15.8 | 71.7 | 10.0 | 8.9 | 12.9 | 8.3 | PR (prevention rate) ([1]; 1000 μg/ml): 78.8%; DIR B (disease incident rate 7 days after treatment), MV (mean value) ([1]; 1000 μg/ml, control 35.3): 7.5%; DIR B (disease incident rate 7 days after treatment), I ([1]; 1000 μg/ml): 5.9%; DIR B (disease incident rate 7 days after treatment), II ([1]; 1000 μg/ml): 9.4%; DIR B (disease incident rate 7 days after treatment), III ([1]; 1000 μg/ml): 7.2%; PR (prevention rate) [1, 3]: 66.8%; DIR B (disease incident rate 7 days after treatment), MV (mean value) [1, 4]: 6.3%; DIR B (disease incident rate 7 days after treatment), I [1, 3]: 5.2%; DIR B (disease incident rate 7 days after treatment), II [1, 3]: 6.1%; DIR B (disease incident rate 7 days after treatment), III [1, 3]: 6.1%; Growth inhibition, glomellera cingurata (glomellera cingurata): +; Growth inhibition, damping-off of cucumber (damping-off of cucumber): +; Growth inhibition, gray mold rot of strawberry [2]: +
COc1ccc2cc3[n+](cc2c1OC)CCc1cc2c(cc1-3)OCO2.[I-] [berberine iodide] | 9.9 | 31.8 | 30.2 | 29.5 | 35.8 | 35.4 | 22.8 | 25.8 | 23.1 | 19.6 | 73.1 | 9.5 | 10.2 | 8.9 | 9.3 | 78.8 | 7.5 | 6.2 | 7.9 | 8.4 | PR (prevention rate) ([1]; 1000 μg/ml): 82.2%; DIR B (disease incident rate 7 days after treatment), MV (mean value) ([1]; 1000 μg/ml, control 35.3): 6.3%; DIR B (disease incident rate 7 days after treatment), I ([1]; 1000 μg/ml): 4.3%; DIR B (disease incident rate 7 days after treatment), II ([1]; 1000 μg/ml): 9.3%; DIR B (disease incident rate 7 days after treatment), III ([1]; 1000 μg/ml): 5.2%; PR (prevention rate) [1, 3]: 63.2%; DIR B (disease incident rate 7 days after treatment), MV (mean value) [1, 4]: 7.0%; DIR B (disease incident rate 7 days after treatment), I [1, 3]: 7.1%; DIR B (disease incident rate 7 days after treatment), II [1, 3]: 6.6%; DIR B (disease incident rate 7 days after treatment), III [1, 3]: 6.6%; Growth inhibition, glomellera cingurata (glomellera cingurata): +; Growth inhibition, damping-off of cucumber (damping-off of cucumber): +; Growth inhibition, gray mold rot of strawberry [2]: +
COc1ccc2cc3[n+](cc2c1OC)CCc1cc2c(cc1-3)OCO2 [berberine chloride] | 12.2 | 31.0 | 30.2 | 30.8 | 32.1 | 38.2 | 21.8 | 23.4 | 22.1 | 19.9 | 73.7 | 9.3 | 8.2 | 7.7 | 12.1 | 77.3 | 8.0 | 5.2 | 8.5 | 10.3 | PR (prevention rate) ([1]; 1000 μg/ml): 84.7%; DIR B (disease incident rate 7 days after treatment), MV (mean value) ([1]; 1000 μg/ml, control 35.3): 5.4%; DIR B (disease incident rate 7 days after treatment), I ([1]; 1000 μg/ml): 3.4%; DIR B (disease incident rate 7 days after treatment), II ([1]; 1000 μg/ml): 8.7%; DIR B (disease incident rate 7 days after treatment), III ([1]; 1000 μg/ml): 4.2%; PR (prevention rate) [1, 3]: 69.5^c %; DIR B (disease incident rate 7 days after treatment), MV (mean value) [1, 4]: 5.8%; DIR B (disease incident rate 7 days after treatment), I [1, 3]: 5.9%; DIR B (disease incident rate 7 days after treatment), II [1, 3]: 5.1%; DIR B (disease incident rate 7 days after treatment), III [1, 3]: 5.1%; Growth inhibition, glomellera cingurata (glomellera cingurata): ++; Growth inhibition, damping-off of cucumber (damping-off of cucumber): ++; Growth inhibition, gray mold rot of strawberry [2]: +
